Results from publication PMC5437240, “Computational and structural evidence for neurotransmitter-mediated modulation of the oligomeric states of human insulin in storage granules” (The Journal of Biological Chemistry, 2017).

Molecular target: T1, porcine hexameric Zn2+-insulin (Sus scrofa, UniProt P01315)
T1 construct: gene INS; mature two-chain disulfide-linked insulin, cut from (pre)proinsulin; Zn2+ hexamer (two Zn per hexamer), T6 start state
Experiment: UV-visible 4H3N chromophore titration, Hill fit
Format: binding
Settings: read-out: Kd ± S.D.
Source text: UV-visible 4H3N chromophore titration, Hill fit on porcine hexameric Zn2+-insulin

T1 sequence (P01315 25-54): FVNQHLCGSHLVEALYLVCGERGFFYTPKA
T1 sequence (P01315 88-108): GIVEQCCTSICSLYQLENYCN

Structure (SMILES)	Kd
Oc1ccccc1 [phenol]	860 ± 130 µM
NCCc1c[nH]c2ccc(O)cc12 [serotonin]	3340 ± 520 µM
